ChEMBL document CHEMBL5233211, “Progress in PD-1/PD-L1 pathway inhibitors: From biomacromolecules to small molecules” (Eur J Med Chem, 2020)
Numbered stars: 1 amine (or outer) side, 2 acyl side, 3 side chain; on linkers, the order of the positions; unused ones are H or OH. Bridge positions count the residues as written; N and C are the ends. Square brackets hold non-standard residues; d marks the D form. Peptide text beside a SMILES is read from it. ξ: configuration not given here. X1 = O=C(C(CO)NN[*:1])[*:2]; ξY = NC(Cc1ccc(O)cc1)C(=O)O; ξQ = NC(=O)CCC(N)C(=O)O; ξN = NC(=O)CC(N)C(=O)O

biological target: T1, Programmed cell death 1 ligand 2 (Mus musculus, UniProt Q9WUL5); test: Inhibition of PD-L2 in mouse splenocytes assessed as increase in INFgamma production; assay type: cell-based, Splenocyte; details: not given
T1 sequence (Q9WUL5 whole entry): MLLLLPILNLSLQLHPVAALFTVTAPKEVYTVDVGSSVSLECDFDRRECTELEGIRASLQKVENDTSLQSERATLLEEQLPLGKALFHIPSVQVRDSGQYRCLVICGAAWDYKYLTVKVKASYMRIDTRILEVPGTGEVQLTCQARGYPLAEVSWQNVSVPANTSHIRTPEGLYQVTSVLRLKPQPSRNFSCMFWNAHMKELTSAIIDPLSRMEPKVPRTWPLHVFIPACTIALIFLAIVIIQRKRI

| Compound | EC50 |
| --- | --- |
| CC(O)[C@H](NC(=O)N[C@@H](CC(N)=O)c1nnc([C@@H](N)CO)s1)C(=O)O (stereo partly specified) | 55 nM |

biological target: T2, Programmed cell death 1 ligand 2 (Homo sapiens, UniProt Q9BQ51); test: Inhibition of PD-L2 in human PBMCs assessed as increase in INFgamma production; assay type: cell-based, PBMC; details: not given
T2 sequence (Q9BQ51 whole entry): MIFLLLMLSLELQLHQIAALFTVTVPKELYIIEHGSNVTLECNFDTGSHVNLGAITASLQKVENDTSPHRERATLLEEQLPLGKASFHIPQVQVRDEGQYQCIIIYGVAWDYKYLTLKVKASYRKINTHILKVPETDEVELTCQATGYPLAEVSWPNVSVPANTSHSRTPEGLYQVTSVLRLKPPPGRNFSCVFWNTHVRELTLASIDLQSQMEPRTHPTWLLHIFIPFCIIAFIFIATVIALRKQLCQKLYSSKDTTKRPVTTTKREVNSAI

| Compound | EC50 |
| --- | --- |
| CC(O)[C@H](NC(=O)N[C@@H](CC(N)=O)c1nnc([C@@H](N)CO)s1)C(=O)O (stereo partly specified) | 149 nM |

biological target: T3, Programmed cell death protein 1/Programmed cell death 1 ligand 1 (Homo sapiens, UniProt Q15116+Q9NZQ7); test: Inhibition of recombinant human PD-1/PD-L1 interaction relative to control; assay type: protein-complex assay; details: concentration not given here
T3 sequence (Q15116 whole entry): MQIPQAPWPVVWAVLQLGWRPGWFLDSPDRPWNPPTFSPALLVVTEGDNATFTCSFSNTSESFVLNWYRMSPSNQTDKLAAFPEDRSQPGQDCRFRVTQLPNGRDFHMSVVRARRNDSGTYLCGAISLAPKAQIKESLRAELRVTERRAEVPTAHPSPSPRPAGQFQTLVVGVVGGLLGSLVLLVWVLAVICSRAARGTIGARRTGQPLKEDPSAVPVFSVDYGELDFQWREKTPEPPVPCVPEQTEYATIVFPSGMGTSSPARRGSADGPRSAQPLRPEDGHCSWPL
T3 sequence (Q9NZQ7 whole entry): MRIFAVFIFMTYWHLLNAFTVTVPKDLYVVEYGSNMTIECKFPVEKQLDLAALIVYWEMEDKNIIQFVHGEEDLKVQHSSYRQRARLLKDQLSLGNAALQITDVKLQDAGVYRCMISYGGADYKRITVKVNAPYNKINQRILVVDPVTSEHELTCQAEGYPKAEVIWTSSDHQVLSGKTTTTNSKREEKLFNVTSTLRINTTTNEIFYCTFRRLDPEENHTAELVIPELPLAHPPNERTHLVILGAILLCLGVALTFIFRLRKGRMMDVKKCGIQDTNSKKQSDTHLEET

| Compound | inhibition |
| --- | --- |
| COc1cc(NS(=O)(=O)c2ccc(N)cc2)ncn1 | 10.2% |
| CCCCN(CCCC)CCOc1cccc(OC(=O)N(C)C)c1 | 41.9% |
| Cc1nnc(NS(=O)(=O)c2ccc(N)cc2)s1 | 29.3% |
| CNCCOc1cccc(OC(=O)N(C)C)c1 | 18.5% |

biological target: Programmed cell death 1 ligand 1 (Mus musculus, UniProt Q9EP73); test: Inhibition of PD-L1 in mouse splenocytes assessed as increase in INFgamma release; assay type: cell-based, Splenocyte; details: not given
Sequence (Q9EP73 whole entry): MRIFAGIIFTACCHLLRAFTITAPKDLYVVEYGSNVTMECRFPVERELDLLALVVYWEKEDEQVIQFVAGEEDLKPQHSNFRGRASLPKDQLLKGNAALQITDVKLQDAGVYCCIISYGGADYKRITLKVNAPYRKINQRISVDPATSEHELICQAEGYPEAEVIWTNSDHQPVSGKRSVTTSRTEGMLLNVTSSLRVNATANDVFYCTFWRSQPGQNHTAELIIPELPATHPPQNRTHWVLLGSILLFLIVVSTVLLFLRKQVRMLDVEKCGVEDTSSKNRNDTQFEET

| Compound | EC50 |
| --- | --- |
| C[C@H](O)[C@H](NC(=O)N[C@@H](CC(N)=O)C(=O)NNC(=O)[C@@H](N)CO)C(=O)O | 30 nM |
| C[C@H](O)[C@@H](N)C(=O)NNC(=O)[C@@H](CC(N)=O)NC(=O)N[C@H](CO)C(=O)O | 40 nM |
| C[C@@H](O)[C@H](N)C(=O)NNC(=O)[C@H](CC(N)=O)NC(=O)N[C@@H](CO)C(=O)O | 27 nM |
| CC(O)[C@H](NC(=O)N[C@@H](CC(N)=O)c1nnc([C@@H](N)CO)s1)C(=O)O (stereo partly specified) | 33.8 nM |

tested on: not listed separately; test: Induction of mouse splenocytes proliferation at 100 nM; assay type: functional, Splenocyte; details: not given

| Compound | Activity |
| --- | --- |
| CCN(Cc1ccccc1)C(=O)N[C@@H](CC(N)=O)c1nc([C@@H](N)CO)no1 | 92% |
| CC(O)[C@H](NC(=O)N[C@@H](CCC(N)=O)c1nnc([C@@H](N)C(C)O)o1)C(=O)O (stereo partly specified) | 97% |
| N[C@@H](Cc1ccc(O)cc1)c1noc([C@@H]2CCCN2C(=O)N[C@@H](Cc2ccc(O)cc2)C(=O)O)n1 | 91% |
| C[C@@H](O)[C@H](N)c1noc([C@H](Cc2ccc(O)cc2)NC(=O)N2CCC[C@H]2C(=O)O)n1 | 99% |
| C[C@H](O)[C@H](NC(=O)N[C@@H](Cc1ccccc1)c1nc([C@@H](N)CO)no1)C(=O)O | 92% |

biological target: T3, Programmed cell death protein 1/Programmed cell death 1 ligand 1; test: Inhibition of human PD-1/PD-L1 interaction; assay type: protein-complex assay; details: not given

| Compound | IC50 | EC50 |
| --- | --- | --- |
| Cc1c(Nc2nccc3cc(CN4CC[C@@H](O)C4)cnc23)cccc1-c1cccc(-c2nc3cc(CN[C@H]4CC[C@@H](C(=O)O)C4)cc(C#N)c3o2)c1C | < 10 nM | – |
| Cc1c(-c2ccc3c(c2)OCCO3)cccc1-c1nc2cc(CNCCO)c(OCC#N)cc2o1 | < 10 nM | – |
| Cc1c(-c2ccccc2)cccc1-c1nc2cc(CNCCO)c(OCCN3CCOCC3)cc2o1 | < 10 nM | – |
| Cc1c(-c2nc3c(o2)CN(C(=O)CN2CCC(O)CC2)C3)cccc1-c1cccc(-c2nc3cc(CN4CC[C@@](C)(C(=O)O)C4)cc(C#N)c3o2)c1C | < 10 nM | – |
| Cc1c(-c2ccc3c(c2)OCCO3)cccc1-c1nc2cc(CNCCO)cc(C)c2o1 | < 10 nM | – |
| Cc1c(-c2nc3cc(CN4CC[C@@](C)(C(=O)O)C4)cc(C#N)c3o2)cccc1-c1cccc(-c2nc3c(s2)CN(C(=O)CN(C)C(C)C)C3)c1C | < 10 nM | – |
| Cc1c(Nc2nccc3cc(CN[C@H](C)CO)cnc23)cccc1-c1cccc(-c2nc3cc(CN4CCC(C(=O)O)CC4)cc(C#N)c3o2)c1C | < 10 nM | – |
| Cc1c(-c2ccccc2)cccc1-c1nc2cc(CNCCO)ccc2o1 | < 10 nM | – |
| CC[C@H](C)[C@@H]1NC(=O)[C@H](CC(C)C)NC(=O)[C@H](Cc2ccccc2)NC(=O)CSC[C@@H](C(=O)NCC(N)=O)NC(=O)[C@H](CCCNC(=N)N)NC(=O)[C@H](Cc2ccccc2)NC(=O)[C@H](C(C)C)NC(=O)[C@H](CCCNC(=N)N)NC(=O)[C@H](CC(=O)O)NC(=O)[C@H](CCCNC(=N)N)NC(=O)[C@H]([C@@H](C)CC)NC(=O)[C@H](C(C)C)NC1=O ({CH2CO}-FLIVIRDRVFRCG-NH2; thioether N-12) | – | 0.72 nM |

biological target: not listed separately; test: Binding affinity to human PD-1; details: not given

| Kd | Compound |
| --- | --- |
| 339000 nM | H-FNWDYSWKSERLKEAYDL-OH |
| 22400 nM | N[C@@H](Cc1c[nH]c2ccccc12)C(=O)N[C@@H](CC(=O)O)C(=O)N[C@@H](Cc1ccc(O)cc1)C(=O)N[C@@H](CC(=O)O)C(=O)O (H-WDYD-OH) |
| 21600 nM | H-LDYGDKREGQMAE-OH |
| 28300 nM | H-GIDYEERWK-OH |
| 3140 nM | H-FNWDYSLEELREKAKYK-OH |
| 1380 nM | CC(C)C[C@H](NC(=O)[C@H](CCC(N)=O)NC(=O)[C@H](C)NC(=O)[C@H](CCCNC(=N)N)NC(=O)[C@H](CCC(N)=O)NC(=O)[C@H](CO)NC(=O)[C@H](CC(N)=O)NC(=O)[C@H](Cc1ccc(O)cc1)NC(=O)[C@H](CC(=O)O)NC(=O)[C@H](Cc1c[nH]c2ccccc12)NC(=O)C(CC(N)=O)NC(=O)CN)C(=O)N[C@@H](Cc1ccc(O)cc1)C(=O)N[C@@H](CC(N)=O)C(=O)N[C@@H](CCC(N)=O)C(=O)O (stereo partly specified) (H-G[ξN]WDYNSQRAQLYNQ-OH) |
| 3130 nM | CC[C@H](C)[C@H](NC(=O)[C@H](CC(N)=O)NC(=O)CNC(=O)[C@H](Cc1cnc[nH]1)NC(=O)[C@H](CCCNC(=N)N)NC(=O)C(Cc1ccc(O)cc1)NC(=O)[C@H](CC(=O)O)NC(=O)[C@H](CCCCN)NC(=O)[C@H](CCC(=O)O)NC(=O)[C@@H](N)[C@@H](C)O)C(=O)N[C@@H](CCCNC(=N)N)C(=O)N[C@@H](CCSC)C(=O)N[C@@H](CCCCN)C(=O)N[C@@H](CC(C)C)C(=O)N[C@@H](C)C(=O)N[C@@H](Cc1ccc(O)cc1)C(=O)N[C@@H](CC(=O)O)C(=O)N[C@@H](CC(C)C)C(=O)O (stereo partly specified) (H-TEKD[ξY]RHGNIRMKLAYDL-OH) |
| 3320 nM | H-LDYVNRRKMYQ-OH |

biological target: T3, Programmed cell death protein 1/Programmed cell death 1 ligand 1; test: Inhibition of PD-1/PD-L1 interaction in human MDA-MB-231 cells assessed as increase in mouse splenocytes proliferation; assay type: cell-based; set-up: concentration or dose not given beside the values; details: not given

| Compound | Activity |
| --- | --- |
| C[C@@H](O)[C@@H]1NC(=O)C(N[C@@H](CO)C(=O)O)CCCCNC(=O)CCC(C(=O)N[C@@H](CO)C(=O)N[C@@H](Cc2ccccc2)C(N)=O)NC(=O)[C@H](CO)NC1=O (stereo partly specified) | 84% |
| C[C@@H](O)[C@@H]1NC(=O)C(N[C@@H](CO)C(=O)O)CCC(=O)NCCCCC(C(=O)N[C@@H](CO)C(=O)N[C@@H](Cc2ccccc2)C(N)=O)NC(=O)[C@H](CO)NC1=O (stereo partly specified) | 78% |
| C[C@@H](O)[C@@H]1NC(=O)[C@H](CC(N)=O)NC(=O)C(CO)NNC(=O)C(CCC(N)=O)NC(=O)[C@H](Cc2ccccc2)NC(=O)[C@H](CO)NC(=O)[C@H](CCC(=O)O)NC(=O)[C@H](CO)NC1=O (stereo partly specified) (cyclo(ESF[ξQ][X1]NTS)) | 76% |
| CC[C@H](C)[C@H](NC1CCC(=O)NCCCCC(C(=O)N[C@@H](CO)C(=O)N[C@@H](Cc2ccccc2)C(N)=O)NC(=O)[C@H](CO)NC(=O)[C@H]([C@@H](C)O)NC1=O)C(=O)O (stereo partly specified) | 76% |
| C[C@@H](O)[C@H](NC(=O)[C@H](CO)NC(CCC(=O)NCCCCNC(=O)C(Cc1ccccc1)NC(=O)C(N)CO)C(N)=O)C(=O)N[C@@H](CC(N)=O)C(=O)N[C@@H](CO)C(=O)O (stereo partly specified) | 87% |
| CC[C@H](C)[C@H](NC1CCC(=O)NCCCCC(C(=O)N[C@@H](CO)C(=O)NC(CCC(N)=O)C(=O)O)NC(=O)[C@H](CO)NC(=O)[C@H](CCSC)NC1=O)C(=O)O (stereo partly specified) | 76% |

tested on: CT26; test: Antitumor activity against mouse CT26 cells implanted in mouse at 3 mg/kg administered for 25 days; assay type: functional; details: time 25 day

| Compound | Activity |
| --- | --- |
| C[C@H](O)[C@H](NC(=O)N[C@@H](CC(N)=O)C(=O)NNC(=O)[C@@H](N)CO)C(=O)O | 46% |

biological target: Programmed cell death 1 ligand 1 (Homo sapiens, UniProt Q9NZQ7); test: Inhibition of PD-L1 in human PBMCs assessed as increase in INFgamma production; assay type: cell-based, PBMC; details: not given
Sequence (Q9NZQ7 whole entry): as the sequence (Q9NZQ7 whole entry) above

| Compound | EC50 |
| --- | --- |
| CC(O)[C@H](NC(=O)N[C@@H](CC(N)=O)c1nnc([C@@H](N)CO)s1)C(=O)O (stereo partly specified) | 56.4 nM |

tested on: not listed separately; test: Inhibition of VISTA/PD-1 interaction in human PBMCs assessed as increase in INFgamma production; assay type: cell-based; details: PBMC

| EC50 | Compound |
| --- | --- |
| 49.4 nM | CC(O)[C@H](NC(=O)N[C@@H](CC(N)=O)c1nnc([C@@H](N)CO)s1)C(=O)O (stereo partly specified) |
